How the values were obtained:
ApoE-deficient mice = experiment: Histology analyses of the aorta (areas, thickness, lesion severity); type: in vivo
Description: (§1) FIG. 4 are photos and graphs showing aortas collected on day 84 of dietary intervention. Representative photomicrographs (100×) of aortic root specimens from (A) control and (B) ABA-fed mice. (C) Analysis of lumenal areas and (D) tunica media areas were performed with aortic cross-sections using Image Pro Plus software. (E) Aortic thickness was analyzed as a ratio of the intima to the media. Gene expression in the aorta of (F) endothelial nitric oxide synthase (eNOS) and (G) 15-lipoxygenase (15-LOX) were measured as a ratio to the house-keeping gene β-actin. Data were analyzed as a completely randomized design.
FIG. 5 are photos and graphs showing histological examination of aortic lesions. ApoE −/− mice were fed high fat diets created with or without abscisic acid (ABA, 100 mg/kg diet). After 84 days aortas were excised and lesions were analyzed histologically according to methods described by van Vlijmen et al[13]. Representative photomicrographs (100×) of a (A) mild and (B) severe lesion are depicted. (C) The total number of mild (categories 1-3) and severe (categories 4-5) lesions from control and ABA-fed mice are shown. (D) Lesional areas, as a percent of total lumen area, for control and ABA-fed mice were calculated from histological sections with Image Pro Plus software. Data are represented as mean±standard error.
The aortic root sections used for histological analyses were perfusion-fixed with paraformaldehyde. Samples of aortas were cut transversally, stained with hematoxylin and eosin, and analyzed histologically. Areas for the lumen, tunica media, and aortic lesions and the thicknesses of the tunica intima and media were assessed using Image Pro Plus 6.1 software (Media Cybernetics, Bethesda, Md.). For thickness analyses, eight different measurements from the intima and media were taken using previously described methods (Hazell et al., Free Radic. Biol. Med. 31:1254-62, 2001). For semiquantitative assessment of lesion severity, methods described by van Vlijmen et al were used (van Vlijmen et al., J. Clin. Invest. 93:1403-10, 1994). Briefly, lesions were classified into five categories (1) early fatty streak: per section up to 10 foam cells present in the intima, (2) regular fatty streak: more than 10 cells present in the intima, (3) mild plaque: extension of foam cells into the media and mild fibrosis of the media without significant loss in architecture, (4) moderate plaque: foam cells in media, fibrosis, cholesterol clefts, mineralization, and/or necrosis of the media, (5) severe plaque: as 4 but more extensive and deeper in the media. Scoring classifications were applied to 15 lesions from control and ABA-fed mice. Lesions falling in categories 1-3 were classified as mild and 4-5 as severe.

[1] = test system: human aorta endothelial cells (HAECs); experiment: Nitric oxide in HAEC culture supernatants; type: cell-based; settings: 0.001-10 μM ABA
Description: (§2) FIG. 7 are graphs showing effect of ABA on (A) cAMP; (B) NO; and (C) eNOS. (A) Confluent human aortic endothelial cell (HAEC) were serum-starved using HBSS buffer for 30 min and then stimulated with various concentrations of ABA (0, 0.01, 0.1, 1, 10 μM) or Forskolin (1 μM) for […]. After removing supernatant, cells were lysated with 0.1 M HCL for 20 minutes to measure non-acetylated cAMP. (B) Confluent HAEC were serum-starved using HBSS buffer for 30 minutes and then stimulated with various concentrations of ABA (0, 0.001, 0.01, 0.1, 1, 10 μM) for 15 minutes to measure NO. Results (pmol/ml) from four independent experiments are depicted. […]
(§3) Confluent human aorta endothelial cells (HAECs) at passage 3 maintained with EGM-2 media (Clonetics, Walkerville, Md.) were adapted to Hank's buffered salt solution buffer for 30 min and then stimulated with ABA or forskolin (1 μM) for 10 min. For intracellular assessment of cAMP, the cells were harvested into 0.1 M HCL and the lysates were obtained by sonication and centrifugation. cAMP the lysates were determined by using an EIA kit (Assay Designs, Ann Arbor, Mich.) and results were obtained from four independent experiments. Nitric oxide levels in the cell culture supernatants were determined with the Nitric Oxide Assay Kit according to manufacturer's instructions (Assay Designs). […]

[2] = test system: endothelial nitric oxide synthase (eNOS); experiment: Aortic gene expression by real-time RT-PCR: eNOS; type: in vivo, mice; settings: day 84, ratio to β-actin
Description: as §1
Total RNA was isolated from aortas using the RNA isolation Minikit (Qiagen) according to the manufacturer's instructions. Total RNA (1 μg) was used to generate a complementary DNA (cDNA) template using the iScript cDNA Synthesis Kit (Bio-Rad, Hercules, Calif.). […] Each gene amplicon was purified with the MiniElute PCR Purification Kit (Qiagen) and quantitated on an agarose gel by using a DNA mass ladder (Promega). […]
Complementary DNA (cDNA) concentrations for genes of interest were examined by real-time quantitative PCR using an iCycler IQ System and the iQ SYBR green supermix (Bio-Rad). […] Results are presented as a starting quantity of target cDNA (picograms) per microgram of total RNA. […]

[3] = test system: human aorta endothelial cells (HAECs); experiment: Intracellular cAMP in human aorta endothelial cells; type: cell-based; settings: tested 0.01-10 μM
Description: as §2, §3

## CC1=CC(=O)CC(C)(C)C1(O)/C=C/C(C)=C\C(=O)O (racemic) [ABA, abscisic acid]
ApoE-deficient mice; day 84
  Lesion area as a percent of total lumenal area vs control: significantly decreased
ApoE-deficient mice; day 84, aortic cross-sections
  Aortic luminal area vs control: no significant differences
  Aortic tunica media area vs control: no significant differences
ApoE-deficient mice; day 84, aortic root
  Intima to media ratio vs control: significantly lower
ApoE-deficient mice; of 15 lesions scored, day 84
  Number of mild lesions (categories 1-3): 10
ApoE-deficient mice; of 15 lesions scored, day 84, control-fed mice 8 of 15
  Number of severe lesions (categories 4-5): 5
[1]
  NO production: enhanced NO production
[2]
  Aortic expression of eNOS mRNA vs control: significantly elevated
[3]
  Dose inducing maximal effect on intracellular cAMP: 1 µM
  Lowest dose significantly increasing intracellular cAMP concentrations: 0.1 µM

Reference: patent US20110054033A1, “METHODS OF USING ABSCISIC ACID FOR AMELIORATING HYPERTENSION AND VASCULAR INFLAMMATION” (Virginia Tech Intellectual Properties, Inc., priority 2009, published 2011)
